Measurements published in ChEMBL document CHEMBL3301361, “Experimental in vitro DMPK and physicochemical data on a set of publicly disclosed compounds”.
In brackets after ≈: the same amount, converted by molar mass.

Legend:
[1] = in vitro; conditions: hepatocytes
[2] = physchem; conditions: pH 7.4 buffer
[3] = in vitro; conditions: human
[4] = physchem; conditions: octan-1-ol/water, pH 7.4, LogD7.4

hepatocyte CLint [1] [µL/min/1e6 cells]	solubility thermodynamic [2] [µM]	microsomal CLint ([3]; microsomes) [µL/min/mg]	logD [4]	microsomal CLint ([3]; liver microsomes) [µL/min/mg]	Structure (SMILES)
21.4	1510 (≈ 341 µg/mL)	50.1			Cc1nc2ccccn2c1-c1ccnc(N)n1
< 3			0.3	< 3	CCOc1nc2cccc(C(=O)O)c2n1Cc1ccc(-c2ccccc2-c2nnn[nH]2)cc1
72	1510 (≈ 650 µg/mL)	25			O=C(CCOCCc1ccccc1)NCCNCCc1ccc(O)c2nc(O)sc12
5.5			3.3	33.1	O=C(Nc1ncc(F)s1)C(CC1CCOCC1)c1ccc(S(=O)(=O)C2CC2)cc1 (stereo not drawn)
4.17			2.8	19.5	O=C1NC(=O)/C(=C/c2ccc3c(c2)OC(F)(F)O3)S1
< 3			0.2	< 3	Cc1c2c(=O)n(-c3ccccc3Cl)[nH]c2cc(=O)n1Cc1ccccn1
8			-0.96	< 3	CNS(=O)(=O)Cc1ccc2[nH]cc(CCN(C)C)c2c1
66.1			3.78	66.1	CCc1c(C)nc(SCC(=O)Nc2nc(-c3ccc(OC)cc3)cs2)nc1O
31.6			1.8	6.61	COc1cc(-c2ccc(Nc3ccccc3C(=O)O)c(OC)c2)ccc1Nc1ccccc1C(=O)O
111			3.37	119	c1ccc(Nc2[nH]nnc2-c2ccccc2)cc1
> 150			2.7	46.8	Cc1ccccc1NC(=O)CCS(=O)(=O)c1ccc(Br)s1
> 150			3.65	99	c1csc(Cn2nnnc2CN2CCN(c3nc4ccccc4s3)CC2)c1
141			1.52	> 150	Cc1cc(C)nc(SCC(=O)Nc2cc(C)on2)n1
> 150		117	3.2		O=C(c1csc2c1CCCC2)N1CCCCC1
64.3			0.16	> 150	Cc1nc2ncnn2c(O)c1CCOC(=O)c1c(F)cccc1F
38	91.2 (≈ 47.7 µg/mL)	11			CCNC(=O)c1cnc(N2CCN(C3CCN(Cc4ccc(Cl)cc4F)CC3)[C@@H](CC)C2)c(Cl)c1
13.8		64.6	3.5		COc1ccc(C(=O)NCc2cn(-c3cc(C)nc4ccc(OC)cc34)nn2)cc1
43			1.21	35	CN(CCNC[C@H](O)c1ccc(O)c2[nH]c(=O)sc12)C(=O)CCOCCc1ccccc1
> 150		75	2.54		O=c1[nH]c2c(O)ccc([C@@H](O)CNCCSCCCOCCc3ccccc3)c2s1
8			0.41	75	CCOc1ccc(CCNCCCSCCNC[C@H](O)c2ccc(O)c3[nH]c(=O)sc23)cc1
6			1.21	13	O=c1[nH]c2c(O)ccc([C@@H](O)CNCCSCCCNCCc3cccc(C(F)(F)F)c3)c2s1

hepatocyte CLint [1] [µL/min/1e6 cells]	solubility thermodynamic [2] [µM]	microsomal CLint ([3]; microsomes) [µL/min/mg]	logD [4]	microsomal CLint ([3]; liver microsomes) [µL/min/mg]	Structure (SMILES)
129			0.99	> 150	Cc1nc2ncnn2c(O)c1CCOC(=O)c1ccccc1F
56			0.65	72	CCC(CC)NC(=O)c1cnn(-c2ccccc2Cl)c1NS(=O)(=O)c1ccc(C)cc1
27			0.36	13	CCC(CC)NC(=O)c1cnn(C)c1NS(=O)(=O)c1ccc(C)cc1
52			0.8	27	CCC(CC)NC(=O)c1cnn(-c2ccccc2)c1NS(=O)(=O)c1ccc(-c2cnco2)cc1
21			1.69	53	Cc1ccc(S(=O)(=O)Nc2c(C(=O)N(C)C3CCCCC3)c(C)nn2-c2ccccc2)cc1
5			1.34	59	Cc1ccc(S(=O)(=O)Nc2c(C(=O)NC3CCCCC3C)cnn2-c2ccccc2)cc1 (stereo not drawn)
12			0.4	< 3	Cc1nn(-c2ccc(F)cc2)c(NS(=O)(=O)c2cccnc2)c1C(=O)N[C@@H](C)C(C)(C)C
11	1.5 (≈ 0.714 µg/mL)			22	CN1CCC(Oc2cccc3ncnc(Nc4ccc(OCc5ccccn5)c(Cl)c4)c23)CC1
14		22	1.3		O=c1[nH]c2c(O)ccc([C@@H](O)CNCCc3ccc(CNCCc4ccccc4F)cc3)c2s1
24			1.13	16	Cc1cccc2c(CCNCc3cccc(CCNC[C@H](O)c4ccc(O)c5[nH]c(=O)sc45)c3)c[nH]c12
107		27.5	1.58		O=c1[nH]c2c(O)ccc([C@@H](O)CNCCc3ccccc3CNCCc3ccccc3F)c2s1
19			1.11	9	O=c1[nH]c2c(O)ccc([C@@H](O)CNCCc3cccc(CNCCCc4ccccc4)c3)c2s1
13			0.86	62	COc1ccc(CNCc2cccc(CCNC[C@H](O)c3ccc(O)c4[nH]c(=O)sc34)c2)cc1
33			1.52	45	COc1ccccc1CN(C)Cc1cccc(CCNC[C@H](O)c2ccc(O)c3[nH]c(=O)sc23)c1
> 150			3.01	16.6	CC(=O)c1ncccc1NC(=O)[C@H]1CC[C@H](N2C(=O)[C@@H]3[C@@H]4CC[C@@H](C4)[C@@H]3C2=O)CC1
17.4			1.1	4.47	O=C(Nc1cccc(-c2nnn[nH]2)c1)c1cc(C(F)(F)F)cc2[nH]cnc12
8.91			1.56	8.51	N[C@@H]1CCCN(c2c(/C=C3\SC(=O)NC3=O)cccc2-c2ccncc2)C1
> 150		138	3.9		COc1ccc2nc(C)cc(OCC(=O)Nc3ccccc3OC)c2c1
120			3.2	> 150	COc1ccc2nc(C)cc(OCC(=O)NCc3ccccc3)c2c1
19.9			2.8	51.3	CNC(=O)c1nc(-c2ccc(Cl)c(S(=O)(=O)Nc3cccc(F)c3F)c2)cnc1N
41.4	525 (≈ 214 µg/mL)			12.5	N#CC1(NC(=O)[C@@H]2CCCC[C@H]2C(=O)N2CCc3[nH]c4ccc(F)cc4c3C2)CC1

hepatocyte CLint [1] [µL/min/1e6 cells]	solubility thermodynamic [2] [µM]	microsomal CLint ([3]; microsomes) [µL/min/mg]	logD [4]	microsomal CLint ([3]; liver microsomes) [µL/min/mg]	Structure (SMILES)
17.4			4.2	15.1	CCn1c(C)c(C(=O)O)c(-c2cccc(N3CCN(c4ccc(NS(=O)(=O)c5ccc(N[C@H](CCN6CCC(O)CC6)CSc6ccccc6)c(S(=O)(=O)C(F)(F)F)c5)cc4)CC3)c2)c1-c1ccc(Cl)cc1
57.5			2.8	> 150	Cc1cc2cc(C)c3nnc(SCC(=O)N4CCN(C(=O)c5ccco5)CC4)n3c2cc1C
61		82	-0.84		O=C(O)COc1ccc(C(=O)c2cccs2)c(Cl)c1Cl
28			0.8	< 3	O=C(O)[C@H](Cc1ccccc1)N1CCC(CN2CCC(Oc3ccc(CO)c(Cl)c3)CC2)CC1
3.63			0.2	5.37	COc1ccc(Cc2c(N)n[nH]c2N)cc1
> 150	372 (≈ 183 µg/mL)			> 150	Cc1ccc(CCOCCNS(=O)(=O)CCCNCCc2ccc(O)c3nc(O)sc23)cc1
7.94	0.9 (≈ 0.448 µg/mL)			< 3	Cn1c(-c2ccccc2C(F)(F)F)nnc1C12CCC(c3noc(-c4ccc(F)cc4)n3)(CC1)CC2
12.6			3.2	27.5	COc1cc2c(Nc3ccc(F)c(Cl)c3)c(C(N)=O)cnc2cc1OCCN(C)CCO
> 150			3.83	10	O=C(Nc1cccc(CCO)c1)c1cc2cc(Cl)ccc2[nH]1
13			3.08	15	O=C(NCC12CC3CC(CC(C3)C1)C2)c1c(Cl)ccc2nc(N3CCC[C@H](NCCc4nnn[nH]4)C3)ccc12
4		68	0.6		O=C(NCC12CC3CC(CC(C3)C1)C2)c1ccnc(NCC2CCNCC2)c1Cl
6.31		19.9	2.4		COc1c(Nc2ccc(S(C)(=O)=O)nc2C)ncnc1OC1CCN(C(=O)OC(C)C)CC1 [ADP-597]
< 3			2.3	8.32	O=C(Nc1c[nH]nc1-c1nc2cc(CN3CCOCC3)ccc2[nH]1)NC1CC1 [AT-9283]
115			1.7	> 150	COCC1=C(C(=O)OC(C)OC(=O)OC(C)C)N2C(=O)[C@@H](NC(=O)/C(=N\OC)c3csc(N)n3)[C@H]2SC1 (stereo partly drawn) [CEFPODOXIME PROXETIL]
46			1.79	< 3	Cc1nccn1CCC(C(N)=O)(c1ccccc1)c1ccccc1 [IMIDAFENACIN]
< 3		4.57	1.5		Cn1c(=O)c(Oc2ccc(F)cc2F)cc2cnc(NC(CCO)CCO)nc21 [PAMAPIMOD]
13.5			3.63	14.4	Cc1cc(CCCOc2c(C)cc(-c3noc(C(F)(F)F)n3)cc2C)on1 [PLECONARIL]
69.2			0.47	15.5	Cc1oc(=O)oc1CN1CCN(c2cc3c(cc2F)c(=O)c(C(=O)O)c2n3C(C)S2)CC1 (stereo not drawn) [PRULIFLOXACIN]
< 3		< 3	1.91		Nc1c(C(=O)c2cccc(OC[C@@H](O)CO)c2)cnn1-c1ccc(F)cc1 [RO-3201195]
